Literature values in patent publication US20080188510A1, “NOVEL METHODS USING ZONISAMIDE” (Eisai R & D Management Co., Ltd., priority 2005, published 2008).

Test system: dopaminergic neurodegeneration induced by MPTP
Conditions: MPTP (1-methyl-4-phenyl-1,2,3,6-tetrahydropyridine) induced; cited from earlier work

## NS(=O)(=O)Cc1noc2ccccc12 [zonisamide, 3-sulfamoylmethyl-1,2-benzisoxazole]
  suppressant action to dopaminergic neurodegeneration induced by MPTP: extremely strong suppressant action
